US12178804B2, “Salts of cycloserine compounds and applications thereof” (SyneuRx International (Taiwan) Corp., priority 2018, dated 2024)

Tests used:
[1] = Hygroscopicity test at room temperature/95% RH in an open system; type: physicochemical
[2] = Stress study at 40° C./75% RH in closed system (appearance, HPLC)

SMILES	water absorbed at the 30th day ([1]; FIG. 41)	water absorbed at the 30th day ([1]; FIG. 42)	water absorbed at the 60th day ([1]; FIG. 40)	hygroscopicity compared with D-cycloserine and the carboxylic acids alone [1]	also measured
N[C@@H]1CONC1=O [D-cycloserine from Strides Shasun Ltd., D-cycloserine]	41.9%	42.7%	59.2%		
N[C@@H]1CONC1=O.O=C(O)C(O)C(O)C(=O)O [D-cycloserine L-tartrate]			18.9%	much less hygroscopic	hygroscopicity (in words) ([1]; 30 days, FIG. 41): not hygroscopic; hygroscopicity (in words) ([1]; 60 days, FIG. 40): not hygroscopic
O=C(O)[C@@H](O)[C@H](O)C(=O)O [D-tartaric acid]		177.0%			stability by HPLC after stress study ([2]; 40/75% RH, 30 days, FIG. 39): stable
N[C@@H]1CONC1=O [D-cycloserine]	41.3%	43.3%	62.5%		appearance after one month stress study ([2]; 40° C./75% RH, one month): disintegrated and turned into dark yellow
O=C(O)/C=C\C(=O)O [Maleic acid, maleic acid]	100.4%				
N[C@@H]1CONC1=O.O=C(O)/C=C\C(=O)O [D-cycloserine maleate (1:1) salt form, D-cycloserine maleate]	1.3%			much less hygroscopic	
O=C(O)[C@H](O)[C@@H](O)C(=O)O [L-tartaric acid]			244.6%		
N[C@@H]1CONC1=O.N[C@@H]1CONC1=O.O=C(O)C(O)C(O)C(=O)O [D-cycloserine D-tartrate]		1.3%		much less hygroscopic	hygroscopicity (in words) ([1]; 30 days, FIG. 42): not hygroscopic
